Measured values as given in ChEMBL document CHEMBL3044875, “Synthesis and antimicrobial activity of some bisoctahydroxanthene-1,8-dione derivatives” (2011).
The source made the active and inactive calls. The calls are words filed in the database; no cut-off is given here.

Key:
Aspergillus niger [1] = assay: Antifungal activity against Aspergillus niger ATCC 10949 at 140 ug/disk after 72 hr by disk diffusion method; assay type: functional; settings: for zone of inhibition at 140 µg/disc: ATCC 10949, 72 h, read-out: DIZ
[2] = tested on: Staphylococcus epidermidis; assay: Antibacterial activity against Staphylococcus epidermidis ATCC 12228 at 20 ug/disk after 24 hr by disk diffusion method; assay type: functional, organism-based
Rhodotorula mucilaginosa [3] = assay: Antifungal activity against Rhodotorula mucilaginosa at 140 ug/disk after 48 hr by disk diffusion method; assay type: functional; settings: for zone of inhibition at 140 µg/disc: read-out: DIZ
Rhodotorula mucilaginosa [4] = assay: Antifungal activity against Rhodotorula mucilaginosa at 20 ug/disk after 48 hr by disk diffusion method; assay type: functional
Bacillus cereus [5] = assay: Antibacterial activity against Bacillus cereus NRRL 3711 at 20 ug/disk after 24 hr by disk diffusion method; assay type: functional; settings: for zone of inhibition at 20 µg/disc: NRRL 3711, 24 h, read-out: DIZ
Proteus vulgaris [6] = assay: Antibacterial activity against Proteus vulgaris NRRL-B-123 at 40 ug/disk after 24 hr by disk diffusion method; assay type: functional, organism-based
Nocardia [7] = assay: Antibacterial activity against Nocardia canis at 40 ug/disk after 24 hr by disk diffusion method; assay type: functional
Proteus vulgaris [8] = assay: Antibacterial activity against Proteus vulgaris NRRL-B-123 at 140 ug/disk after 24 hr by disk diffusion method; assay type: functional, organism-based
Staphylococcus aureus [9] = assay: Antibacterial activity against Staphylococcus aureus ATCC 25923 at 40 ug/disc after 24 hr by disk diffusion method; assay type: functional
Pseudomonas aeruginosa [10] = assay: Antibacterial activity against Pseudomonas aeruginosa ATCC 27853 at 140 ug/disk after 24 hr by disk-diffusion method; assay type: functional, organism-based
Nocardia [11] = assay: Antibacterial activity against Nocardia canis at 20 ug/disk after 24 hr by disk diffusion method; assay type: functional, organism-based
Aspergillus niger [12] = assay: Antifungal activity against Aspergillus niger ATCC 10949 at 20 ug/disk after 72 hr by disk diffusion method; assay type: functional, organism-based
Staphylococcus aureus [13] = assay: Antibacterial activity against Staphylococcus aureus ATCC 25923 at 140 ug/disc after 24 hr by disk diffusion method; assay type: functional
Escherichia coli [14] = assay: Antibacterial activity against Escherichia coli ATCC 25922 at 20 ug/disk after 24 hr by disk-diffusion method; assay type: functional
Candida albicans [15] = assay: Antifungal activity against Candida albicans ATCC 10231 at 40 ug/disk after 48 hr by disk-diffusion method; assay type: functional; settings: ATCC 10231, 48 h, read-out: DIZ
Rhodotorula mucilaginosa [16] = assay: Antifungal activity against Rhodotorula mucilaginosa at 40 ug/disk after 48 hr by disk diffusion method; assay type: functional
Escherichia coli [17] = assay: Antibacterial activity against Escherichia coli ATCC 25922 at 140 ug/disk after 24 hr by disk-diffusion method; assay type: functional
Bacillus cereus [18] = assay: Antibacterial activity against Bacillus cereus NRRL 3711 at 140 ug/disk after 24 hr by disk diffusion method; assay type: functional; settings: for zone of inhibition at 140 µg/disc: NRRL 3711, 24 h, read-out: DIZ
Pseudomonas aeruginosa [19] = assay: Antibacterial activity against Pseudomonas aeruginosa ATCC 27853 at 20 ug/disk after 24 hr by disk-diffusion method; assay type: functional, organism-based
Nocardia [20] = assay: Antibacterial activity against Nocardia canis at 140 ug/disk after 24 hr by disk diffusion method; assay type: functional
Candida albicans [21] = assay: Antifungal activity against Candida albicans ATCC 10231 at 20 ug/disk after 48 hr by disk-diffusion method; assay type: functional; settings: for zone of inhibition at 20 µg/disc: ATCC 10231, 48 h, read-out: DIZ
Bacillus cereus [22] = assay: Antibacterial activity against Bacillus cereus NRRL 3711 at 40 ug/disk after 24 hr by disk diffusion method; assay type: functional; settings: for zone of inhibition at 40 µg/disc: NRRL 3711, 24 h, read-out: DIZ
Staphylococcus aureus [23] = assay: Antibacterial activity against Staphylococcus aureus ATCC 25923 at 20 ug/disc after 24 hr by disk diffusion method; assay type: functional
Proteus vulgaris [24] = assay: Antibacterial activity against Proteus vulgaris NRRL-B-123 at 20 ug/disk after 24 hr by disk diffusion method; assay type: functional, organism-based
Escherichia coli [25] = assay: Antibacterial activity against Escherichia coli ATCC 25922 at 40 ug/disk after 24 hr by disk-diffusion method; assay type: functional
Candida albicans [26] = assay: Antifungal activity against Candida albicans ATCC 10231 at 140 ug/disk after 48 hr by disk-diffusion method; assay type: functional; settings: ATCC 10231, 48 h, read-out: DIZ
[27] = tested on: Staphylococcus epidermidis; assay: Antibacterial activity against Staphylococcus epidermidis ATCC 12228 at 140 ug/disk after 24 hr by disk diffusion method; assay type: functional
[28] = tested on: Staphylococcus epidermidis; assay: Antibacterial activity against Staphylococcus epidermidis ATCC 12228 at 40 ug/disk after 24 hr by disk diffusion method; assay type: functional
Aspergillus niger [29] = assay: Antifungal activity against Aspergillus niger ATCC 10949 at 40 ug/disk after 72 hr by disk diffusion method; assay type: functional, organism-based
Pseudomonas aeruginosa [30] = assay: Antibacterial activity against Pseudomonas aeruginosa ATCC 27853 at 40 ug/disk after 24 hr by disk-diffusion method; assay type: functional, organism-based
[31] = ATCC 25922, 24 h, read-out: DIZ

SMILES | diameter of the inhibition zone (DIZ) [2] | diameter of the inhibition zone (DIZ) (Rhodotorula mucilaginosa [4]) | diameter of the inhibition zone (DIZ) (Proteus vulgaris [6]) | diameter of the inhibition zone (DIZ) (Nocardia [7]) | diameter of the inhibition zone (DIZ) (Proteus vulgaris [8]) | diameter of the inhibition zone (DIZ) (Staphylococcus aureus [9]) | diameter of the inhibition zone (DIZ) (Pseudomonas aeruginosa [10]) | diameter of the inhibition zone (DIZ) (Nocardia [11]) | diameter of the inhibition zone (DIZ) (Aspergillus niger [12]) | diameter of the inhibition zone (DIZ) (Staphylococcus aureus [13]) | diameter of the inhibition zone (DIZ) (Escherichia coli [14]) | zone of inhibition at 40 µg/disc (Candida albicans [15]) [mm] | diameter of the inhibition zone (DIZ) (Pseudomonas aeruginosa [19]) | diameter of the inhibition zone (DIZ) (Nocardia [20]) | diameter of the inhibition zone (DIZ) (Staphylococcus aureus [23]) | diameter of the inhibition zone (DIZ) (Proteus vulgaris [24]) | zone of inhibition at 140 µg/disc (Candida albicans [26]) [mm] | diameter of the inhibition zone (DIZ) [27] | diameter of the inhibition zone (DIZ) [28] | diameter of the inhibition zone (DIZ) (Aspergillus niger [29]) | further results
CC1(C)CC(=O)C2=C(C1)OC1=C(C(=O)CC(C)(C)C1)C2c1ccc(C2C3=C(CC(C)(C)CC3=O)OC3=C2C(=O)CC(C)(C)C3)cc1 | inactive | inactive | inactive | inactive | inactive | inactive | inactive | inactive | inactive | inactive | inactive | 9 | inactive | inactive | inactive | inactive | 9 | inactive | inactive | inactive | diameter of the inhibition zone (DIZ) (Aspergillus niger [1]): inactive; zone of inhibition at 140 µg/disc (Rhodotorula mucilaginosa [3]): 9 mm; diameter of the inhibition zone (DIZ) (Bacillus cereus [5]): inactive; diameter of the inhibition zone (DIZ) (Rhodotorula mucilaginosa [16]): inactive; diameter of the inhibition zone (DIZ) (Escherichia coli [17]): inactive; zone of inhibition at 140 µg/disc (Bacillus cereus [18]): 7 mm; diameter of the inhibition zone (DIZ) (Candida albicans [21]): inactive; diameter of the inhibition zone (DIZ) (Bacillus cereus [22]): inactive; diameter of the inhibition zone (DIZ) (Escherichia coli [25]): inactive; diameter of the inhibition zone (DIZ) (Pseudomonas aeruginosa [30]): inactive
O=C1CC(c2ccccc2)CC2=C1C(c1cccc(C3C4=C(CC(c5ccccc5)CC4=O)OC4=C3C(=O)CC(c3ccccc3)C4)c1)C1=C(CC(c3ccccc3)CC1=O)O2 (stereo not given) | inactive | inactive | inactive | inactive | inactive | inactive | inactive | inactive | inactive | inactive | inactive | 8 | inactive | inactive | inactive | inactive | 8 | inactive | inactive | inactive | diameter of the inhibition zone (DIZ) (Aspergillus niger [1]): inactive; zone of inhibition at 140 µg/disc (Rhodotorula mucilaginosa [3]): 7 mm; zone of inhibition at 20 µg/disc (Bacillus cereus [5]): 8 mm; diameter of the inhibition zone (DIZ) (Rhodotorula mucilaginosa [16]): inactive; diameter of the inhibition zone (DIZ) (Escherichia coli [17]): inactive; zone of inhibition at 140 µg/disc (Bacillus cereus [18]): 12 mm; zone of inhibition at 20 µg/disc (Candida albicans [21]): 7 mm; zone of inhibition at 40 µg/disc (Bacillus cereus [22]): 11 mm; diameter of the inhibition zone (DIZ) (Escherichia coli [25]): inactive; diameter of the inhibition zone (DIZ) (Pseudomonas aeruginosa [30]): inactive
O=C1CCCC2=C1C(c1cccc(C3C4=C(CCCC4=O)OC4=C3C(=O)CCC4)c1)C1=C(CCCC1=O)O2 | inactive | inactive | inactive | inactive | inactive | inactive | inactive | inactive | inactive | inactive | inactive | 7 | inactive | inactive | inactive | inactive | 7 | inactive | inactive | inactive | zone of inhibition at 140 µg/disc (Aspergillus niger [1]): 7 mm; zone of inhibition at 140 µg/disc (Rhodotorula mucilaginosa [3]): 9 mm; zone of inhibition at 20 µg/disc (Bacillus cereus [5]): 8 mm; zone of inhibition at 40 µg/disc (Rhodotorula mucilaginosa [16]; read-out: DIZ): 7 mm; diameter of the inhibition zone (DIZ) (Escherichia coli [17]): inactive; zone of inhibition at 140 µg/disc (Bacillus cereus [18]): 8 mm; diameter of the inhibition zone (DIZ) (Candida albicans [21]): inactive; zone of inhibition at 40 µg/disc (Bacillus cereus [22]): 10 mm; diameter of the inhibition zone (DIZ) (Escherichia coli [25]): inactive; diameter of the inhibition zone (DIZ) (Pseudomonas aeruginosa [30]): inactive
COc1ccc(C2CC(=O)C3=C(C2)OC2=C(C(=O)CC(c4ccc(OC)c(OC)c4)C2)C3c2cccc(C3C4=C(CC(c5ccc(OC)c(OC)c5)CC4=O)OC4=C3C(=O)CC(c3ccc(OC)c(OC)c3)C4)c2)cc1OC (stereo not given) | inactive | inactive | inactive | inactive | inactive | inactive | inactive | inactive | inactive | inactive | inactive | 7 | inactive | inactive | inactive | inactive | 7 | inactive | inactive | inactive | zone of inhibition at 140 µg/disc (Aspergillus niger [1]): 7 mm; diameter of the inhibition zone (DIZ) (Rhodotorula mucilaginosa [3]): inactive; diameter of the inhibition zone (DIZ) (Bacillus cereus [5]): inactive; diameter of the inhibition zone (DIZ) (Rhodotorula mucilaginosa [16]): inactive; diameter of the inhibition zone (DIZ) (Escherichia coli [17]): inactive; diameter of the inhibition zone (DIZ) (Bacillus cereus [18]): inactive; zone of inhibition at 20 µg/disc (Candida albicans [21]): 7 mm; diameter of the inhibition zone (DIZ) (Bacillus cereus [22]): inactive; diameter of the inhibition zone (DIZ) (Escherichia coli [25]): inactive; diameter of the inhibition zone (DIZ) (Pseudomonas aeruginosa [30]): inactive
CC1(C)CC(=O)C2=C(C1)OC1=C(C(=O)CC(C)(C)C1)C2c1cccc(C2C3=C(CC(C)(C)CC3=O)OC3=C2C(=O)CC(C)(C)C3)c1 | inactive | inactive | inactive | inactive | inactive | inactive | inactive | inactive | inactive | inactive | inactive | 7 | inactive | inactive | inactive | inactive | 7 | inactive | inactive | inactive | diameter of the inhibition zone (DIZ) (Aspergillus niger [1]): inactive; zone of inhibition at 140 µg/disc (Rhodotorula mucilaginosa [3]): 7 mm; diameter of the inhibition zone (DIZ) (Bacillus cereus [5]): inactive; diameter of the inhibition zone (DIZ) (Rhodotorula mucilaginosa [16]): inactive; zone of inhibition at 140 µg/disc (Escherichia coli [17]; [31]): 8 mm; zone of inhibition at 140 µg/disc (Bacillus cereus [18]): 7 mm; diameter of the inhibition zone (DIZ) (Candida albicans [21]): inactive; diameter of the inhibition zone (DIZ) (Bacillus cereus [22]): inactive; zone of inhibition at 40 µg/disc (Escherichia coli [25]; [31]): 7 mm; diameter of the inhibition zone (DIZ) (Pseudomonas aeruginosa [30]): inactive
